Assays:
Assay type in all cases: in vivo
[1] = system: Phakopsora pachyrhizi; assay: Asian soybean rust (PHAKPA) disease control; set-up: key: A: > 80; B: ≤ 80; C: Not Tested; D: No Activity Observed in the Reported Assay; conditions: 25 ppm; for PHAKPA disease control, 1DP: 1 Day Protectant; for PHAKPA disease control, 3DC: 3 Day Curative
[2] = system: Rhyncosporium secalis; assay: Barley scald (RHYNSE) disease control; conditions: 100 ppm, 1 Day Protectant
Procedure: All fungicides were evaluated using the aforementioned method for their activity vs. all target diseases, unless stated otherwise. Wheat leaf blotch and brown rust activity were also evaluated using track spray applications, in which case the fungicides were formulated as EC formulations, containing 0.1% Trycol 5941 in the spray solutions. Wheat plants (variety Yuma) were grown from seed in a greenhouse in 50% mineral soil/50% soil-less Metro mix until the first leaf was fully emerged, with 7-10 seedlings per pot. These plants were inoculated with an aqueous spore suspension of Zymoseptoria tritici either prior to or after fungicide treatments. After inoculation the plants were kept in 100% relative humidity (one day in a dark dew chamber followed by two to three days in a lighted dew chamber at 20° C.) to permit spores to germinate and infect the leaf. The plants were then transferred to a greenhouse set at 20° C. for disease to develop. When disease symptoms were fully expressed on the 1st leaves of untreated plants, infection levels were assessed on a scale of 0 to 100 percent disease severity. Percent disease control was calculated using the ratio of disease severity on treated plants relative to untreated plants. Example H: Evaluation of Fungicidal Activity: Barley Scald (Rhyncosporium secalis; Bayer Code […]) Barley seedlings (variety Harrington) were propagated in soil-less Metro mix, with each pot having 8 to 12 plants, and used in the test when first leaf was fully emerged. Test plants were inoculated by an aqueous spore suspension of Rhyncosporium secalis 24 hr after fungicide treatments. After inoculation the plants were kept in a dew room at 22° C. with 100% relative humidity for 48 hr. The plants were then transferred to a greenhouse set at 20° C. for disease to develop. Fungicide formulation, application and disease assessment on the sprayed leaves followed the procedures as described in the Example A.

[3] = system: Cercospora beticola; assay: Leaf spot of sugar beets (CERCBE) disease control; conditions: 100 ppm; 1 Day Protectant; sugar beet
Procedure: All fungicides were evaluated using the aforementioned method for their activity vs. all target diseases, unless stated otherwise. Wheat leaf blotch and brown rust activity were also evaluated using track spray applications, in which case the fungicides were formulated as EC formulations, containing 0.1% Trycol 5941 in the spray solutions. Wheat plants (variety Yuma) were grown from seed in a greenhouse in 50% mineral soil/50% soil-less Metro mix until the first leaf was fully emerged, with 7-10 seedlings per pot. These plants were inoculated with an aqueous spore suspension of Zymoseptoria tritici either prior to or after fungicide treatments. After inoculation the plants were kept in 100% relative humidity (one day in a dark dew chamber followed by two to three days in a lighted dew chamber at 20° C.) to permit spores to germinate and infect the leaf. The plants were then transferred to a greenhouse set at 20° C. for disease to develop. When disease symptoms were fully expressed on the 1st leaves of untreated plants, infection levels were assessed on a scale of 0 to 100 percent disease severity. Percent disease control was calculated using the ratio of disease severity on treated plants relative to untreated plants. Example F: Evaluation of Fungicidal Activity: Leaf Spot of Sugar Beets (Cercospora beticola; Bayer Code CERCBE) Sugar beet plants (variety HH88) were grown in soil-less Metro mix and trimmed regularly to maintain a uniform plant size prior to test. Plants were inoculated with a spore suspension 24 hr after fungicide treatments. Inoculated plants were kept in a dew chamber at 22° C. for 48 hr then incubated in a greenhouse set at 24° C. under a clear plastic hood with bottom ventilation until disease symptoms were fully expressed. Fungicide formulation, application and disease assessment on the sprayed leaves followed the procedures as described in the Example A.

[4] = system: Colletotrichum lagenarium; assay: Cucumber anthracnose (COLLLA) disease control; conditions: 100 ppm, 1 Day Protectant
Procedure: All fungicides were evaluated using the aforementioned method for their activity vs. all target diseases, unless stated otherwise. Wheat leaf blotch and brown rust activity were also evaluated using track spray applications, in which case the fungicides were formulated as EC formulations, containing 0.1% Trycol 5941 in the spray solutions. Wheat plants (variety Yuma) were grown from seed in a greenhouse in 50% mineral soil/50% soil-less Metro mix until the first leaf was fully emerged, with 7-10 seedlings per pot. These plants were inoculated with an aqueous spore suspension of Zymoseptoria tritici either prior to or after fungicide treatments. After inoculation the plants were kept in 100% relative humidity (one day in a dark dew chamber followed by two to three days in a lighted dew chamber at 20° C.) to permit spores to germinate and infect the leaf. The plants were then transferred to a greenhouse set at 20° C. for disease to develop. When disease symptoms were fully expressed on the 1st leaves of untreated plants, infection levels were assessed on a scale of 0 to 100 percent disease severity. Percent disease control was calculated using the ratio of disease severity on treated plants relative to untreated plants. Example K: Evaluation of Fungicidal Activity: Cucumber Anthracnose (Colletotrichum lagenarium; Bayer Code COLLLA) Cucumber seedlings (variety Bush Pickle) were propagated in soil-less Metro mix, with each pot having one plant, and used in the test when 12 to 14 days old. Test plants were inoculated with an aqueous spore suspension of Colletotrichum lagenarium 24 hr after fungicide treatments. After inoculation the plants were kept in a dew room at 22° C. with 100% relative humidity for 48 hr to permit spores to germinate and infect the leaf. The plants were then transferred to a growth room set at 22° C. for disease to develop. Fungicide formulation, application and disease assessment on the sprayed leaves followed the procedures as described in the Example A.

[5] = system: Pyricularia oryzae; conditions: 100 ppm; 1 Day Protectant; rice

| Structure (SMILES) | PHAKPA disease control, 1DP [1] | PHAKPA disease control, 3DC [1] | RHYNSE disease control, 1DP [2] | CERCBE disease control, 1DP [3] | COLLLA disease control, 1DP [4] | PYRIOR disease control, 1DP [5] |
| --- | --- | --- | --- | --- | --- | --- |
| CCCOC(CC)C(Oc1ccccc1)C(C)OC(=O)C(C)NC(=O)c1nccc(OC)c1OCOC(C)=O (centres unmarked) [Cmpd 446] | A (> 80) | B (≤ 80) | B (≤ 80) | B (≤ 80) | B (≤ 80) | – |
| CCC(CC)[C@@H](Oc1ccccc1)[C@H](C)OC(=O)[C@H](C)NC(=O)c1nccc(OC)c1OC(C)=O [Cmpd 479] | A (> 80) | B (≤ 80) | B (≤ 80) | A (> 80) | A (> 80) | A (> 80) |
| COc1ccnc(C(=O)N[C@@H](C)C(=O)O[C@@H](C)[C@H](Oc2cc(F)cc(Cl)c2)C(C)C)c1OCOC(C)=O [Cmpd 617] | A (> 80) | B (≤ 80) | B (≤ 80) | B (≤ 80) | A (> 80) | – |
| COc1ccnc(C(=O)N[C@@H](C)C(=O)O[C@@H](C)[C@H](Oc2ccccc2)c2ccccc2)c1OCOC(C)=O [Cmpd 500] | B (≤ 80) | B (≤ 80) | A (> 80) | A (> 80) | A (> 80) | A (> 80) |
| CCC(C)C(Oc1ccccc1)C(C)OC(=O)C(C)NC(=O)c1nccc(OC)c1OC(C)=O (centres unmarked) [Cmpd 691] | A (> 80) | B (≤ 80) | B (≤ 80) | B (≤ 80) | A (> 80) | – |
| COc1ccnc(C(=O)N[C@@H](C)C(=O)O[C@@H](C)[C@H](Oc2cccc(F)c2)c2ccccc2)c1OCOC(C)=O [Cmpd 574] | A (> 80) | B (≤ 80) | A (> 80) | A (> 80) | A (> 80) | A (> 80) |
| COc1ccnc(C(=O)N[C@@H](C)C(=O)O[C@@H](C)[C@H](Oc2ccccc2)C(C)C)c1OC(C)=O [Cmpd 478] | A (> 80) | B (≤ 80) | B (≤ 80) | B (≤ 80) | B (≤ 80) | A (> 80) |
| COc1ccnc(C(=O)N[C@@H](C)C(=O)O[C@@H](C)[C@H](Oc2cc(F)cc(Cl)c2)c2ccccc2)c1OC(C)=O [Cmpd 642] | B (≤ 80) | B (≤ 80) | A (> 80) | A (> 80) | A (> 80) | A (> 80) |
| COc1ccnc(C(=O)N[C@@H](C)C(=O)O[C@@H](C)[C@@H](Oc2ccccc2)C(C)C)c1OCOC(C)=O [Cmpd 552] | A (> 80) | B (≤ 80) | – | B (≤ 80) | – | – |
| COc1ccnc(C(=O)N[C@H](C)C(=O)O[C@H](C)[C@@H](Oc2ccccc2)C(C)C)c1OCOC(C)=O [Cmpd 548] | B (≤ 80) | D | – | B (≤ 80) | – | – |
| COc1ccnc(C(=O)N[C@H](C)C(=O)O[C@H](C)[C@H](Oc2ccccc2)C(C)C)c1OCOC(C)=O [Cmpd 560] | B (≤ 80) | D | – | B (≤ 80) | – | – |
| COc1ccnc(C(=O)N[C@@H](C)C(=O)O[C@H](C)[C@@H](Oc2ccccc2)c2ccccc2)c1OCOC(C)=O [Cmpd 547] | B (≤ 80) | D | – | B (≤ 80) | – | – |
| COc1ccnc(C(=O)N[C@H](C)C(=O)O[C@@H](C)[C@H](Oc2ccccc2)C(C)C)c1OCOC(C)=O [Cmpd 558] | B (≤ 80) | D | – | B (≤ 80) | – | – |
| C=CC(C)C(Oc1ccccc1)C(C)OC(=O)C(C)NC(=O)c1nccc(OC)c1OCOC(C)=O (centres unmarked) [Cmpd 694] | A (> 80) | B (≤ 80) | B (≤ 80) | A (> 80) | A (> 80) | A (> 80) |
| COc1ccnc(C(=O)N[C@@H](C)C(=O)O[C@@H](C)[C@H](Oc2cccc(Cl)c2)C(C)C)c1OC(C)=O [Cmpd 566] | A (> 80) | B (≤ 80) | A (> 80) | B (≤ 80) | A (> 80) | – |
| COc1ccnc(C(=O)N[C@@H](C)C(=O)O[C@@H](C)[C@H](Oc2ccccc2)C2CCCC2)c1OCOC(C)=O [Cmpd 556] | A (> 80) | B (≤ 80) | B (≤ 80) | A (> 80) | A (> 80) | A (> 80) |
| COc1ccnc(C(=O)N[C@H](C)C(=O)O[C@@H](C)[C@@H](Oc2ccccc2)C(C)C)c1OCOC(C)=O [Cmpd 559] | B (≤ 80) | B (≤ 80) | – | B (≤ 80) | – | – |
| CC[C@@H](CCOC)[C@@H](Oc1ccccc1)[C@H](C)OC(=O)[C@H](C)NC(=O)c1nccc(OC)c1OCOC(C)=O [Cmpd 476] | A (> 80) | B (≤ 80) | B (≤ 80) | B (≤ 80) | B (≤ 80) | A (> 80) |
| CC[C@@H](CCOC)[C@@H](Oc1ccccc1)[C@H](C)OC(=O)[C@H](C)NC(=O)c1nccc(OC)c1OC(C)=O [Cmpd 482] | – | – | – | A (> 80) | A (> 80) | A (> 80) |
| COc1ccnc(C(=O)N[C@@H](C)C(=O)O[C@@H](C)[C@@H](CC(C)C)Oc2ccccc2)c1OCOC(C)=O [Cmpd 557] | A (> 80) | B (≤ 80) | – | B (≤ 80) | – | – |
| COc1ccnc(C(=O)N[C@H](C)C(=O)O[C@H](C)[C@@H](Oc2ccccc2)c2ccccc2)c1OCOC(C)=O [Cmpd 549] | D | D | – | B (≤ 80) | – | – |

— patent publication US20180000085A1, “USE OF PICOLINAMIDE COMPOUNDS WITH FUNGICIDAL ACTIVITY” (DOW AGROSCIENCES LLC, priority 2014, published 2018)
